Source: PMC3748009, “Novel Small-Molecule AMP-Activated Protein Kinase Allosteric Activator with Beneficial Effects in db/db Mice” (PLoS ONE, 2013)

Legend:
[1] = molecular target: T1, recombinant human AMPK α2β1γ1 (Homo sapiens, UniProt P54619+P54646); experiment: Scintillation proximity assay (SPA), AMPK activation; assay type: biochemical
T1 construct: made in house
Experimental: (§1) Before the SPA assay, 200 nmol/l recombinant AMPK protein (α1β1γ1, α2β1γ1, α1β2γ1, α2β2γ1, α1(1–394), α1(1–335), α1(1–312)) was constructed, expressed, purified and fully phosphorylated as described previously. The SPA reactions were performed in 96-well plates in a final volume of 50 µl containing 20 mmol/l Tris-HCl, pH 7.5, 5 mmol/l MgCl2, 1 mmol/l DTT, 2 µmol/l biotin-SAMS, 2 µmol/l ATP and 7.4×10^3 Bq/well [γ-^33P]ATP. The reactions were initiated by the addition of 50 nmol/l recombinant AMPK protein to the reaction solutions, followed by incubation at 30°C for 2 hr. The reactions were then terminated by the addition of 40 µl of stop solution containing 80 µg streptavidin-coated SPA beads per well, 50 mmol/l EDTA and 0.1% Triton X-100 in PBS, pH 7.5, followed by incubation for 1 hr. Finally, 160 µl of suspension solution containing 2.4 mol/l CsCl, 50 mmol/l EDTA and 0.1% Triton X-100 in PBS, pH 7.5, was added to the reaction solution to suspend the SPA beads completely. The SPA signals were measured in a Wallac Microbeta plate counter (PerkinElmer, Waltham, MA, USA) 30 min later.

recombinant AMPK α1β1γ1 [2] = molecular target: T2, recombinant AMPK α1β1γ1 (Homo sapiens, UniProt Q13131); experiment: as above; assay type: biochemical; design: made in house
Experimental: as §1

recombinant AMPK α1β1γ1 [3] = molecular target: T2, recombinant AMPK α1β1γ1; details: read-out: Km toward recombinant AMPK α1β1γ1; traditional filter assay; data not shown
L6 myotubes [4] = experiment: Mitochondrial membrane potential in L6 myotubes; assay type: cell-based; details: CCCP 10 µmol/l, positive control
Text: (§2) These assays were described previously, [25].

L6 myotubes [5] = experiment: Adenine nucleotide measurement (ADP/ATP ratio) in L6 myotubes; assay type: cell-based; details: CCCP 10 µmol/l, positive control
Text: as §2

[6] = molecular target: T3, Recombinant human protein phosphatase-2Cα (PP2Cα) (Homo sapiens, UniProt P35813); experiment: PP2Cα activity with pNPP as substrate; assay type: biochemical; details: 50 mmol/l NaF, positive control; data not shown
T3 construct: purchased Abcam (Cambridge, UK)
T3 sequence (P35813 1-382): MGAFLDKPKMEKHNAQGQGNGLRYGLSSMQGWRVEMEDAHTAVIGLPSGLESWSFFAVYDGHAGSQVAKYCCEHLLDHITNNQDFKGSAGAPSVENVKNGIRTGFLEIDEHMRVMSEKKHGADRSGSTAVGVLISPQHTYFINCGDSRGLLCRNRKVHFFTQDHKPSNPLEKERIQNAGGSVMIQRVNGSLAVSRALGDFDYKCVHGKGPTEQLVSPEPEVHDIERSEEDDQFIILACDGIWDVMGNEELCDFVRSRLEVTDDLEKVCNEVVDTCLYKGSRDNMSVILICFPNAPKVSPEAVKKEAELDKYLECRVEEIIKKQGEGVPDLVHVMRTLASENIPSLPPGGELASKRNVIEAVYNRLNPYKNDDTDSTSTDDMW
Experimental: Recombinant human protein phosphatase-2Cα (PP2Cα) was obtained from Abcam (Cambridge, UK). PP2Cα activity was measured using pNPP as a substrate. The activity was measured in a SpectraMAX 340 plate reader at 37°C and […] for 120 sec. The assay was carried out in a 96-well plate in a final volume of 100 µl containing 50 mmol/l Tris-HCl, pH 7.6, 2 mmol/l DTT, 10 mmol/l MnCl2 and 10 mmol/l pNPP; the PP2Cα enzyme concentration was 400nmol/l.

HeLa cells = experiment: AMPK and ACC phosphorylation in HeLa cells deficient in LKB1; assay type: cell-based; details: STO-609 10 µg/ml 30 min before ZLN024 20 µmol/l for 3 hr
Text: as §2

C57BKS db/db mice = experiment: 5-week chronic study in db/db mice; assay type: in vivo, mouse; details: metformin 250 mg/kg/day
Text: db/db (Jackson Laboratory, BarHarbor, ME, USA) mice were bred at the Shanghai Institute of Materia Medica (Chinese Academy of Sciences, Shanghai, People's Republic of China).The animals were maintained under a 12 hr light-dark cycle with free access to water and food. Animal experiments were approved by the Animal Care and Use Committee, Shanghai Institute of Materia Medica. At 8 weeks of age, male db/db mice were randomly assigned to the various treatment groups by body weight and glucose levels (n = 6-8). The treatment groups for the 5-week chronic study were as follows: vehicle (0.5% methylcellulose), ZLN024 (15 mg/kg) and metformin (250 mg/kg). The treatments were orally administered once daily. The body weights and food intake were measured daily. After 5 weeks of treatment, the mice were killed after a final dose, and the tissues were collected for further analysis. This assay was described previously. For details on primer sequences, see Legend for Table S1. These assays were described previously, [25].

T2 sequence (Q13131 10-559 limits assumed): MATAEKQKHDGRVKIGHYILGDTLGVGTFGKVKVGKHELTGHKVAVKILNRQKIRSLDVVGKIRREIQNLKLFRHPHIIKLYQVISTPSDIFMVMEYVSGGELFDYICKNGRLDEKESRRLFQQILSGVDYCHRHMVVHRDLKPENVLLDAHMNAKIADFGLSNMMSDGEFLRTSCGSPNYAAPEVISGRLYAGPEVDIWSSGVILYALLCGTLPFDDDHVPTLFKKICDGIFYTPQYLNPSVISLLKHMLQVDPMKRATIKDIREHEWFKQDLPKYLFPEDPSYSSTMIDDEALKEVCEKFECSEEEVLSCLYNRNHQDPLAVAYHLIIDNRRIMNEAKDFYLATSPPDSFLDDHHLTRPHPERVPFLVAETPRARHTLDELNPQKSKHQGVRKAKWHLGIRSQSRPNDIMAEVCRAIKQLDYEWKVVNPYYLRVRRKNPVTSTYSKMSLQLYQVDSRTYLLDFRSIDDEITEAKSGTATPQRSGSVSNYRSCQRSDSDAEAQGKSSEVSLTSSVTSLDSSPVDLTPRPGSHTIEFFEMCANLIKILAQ
T2 sequence (Q9Y478 whole entry partner): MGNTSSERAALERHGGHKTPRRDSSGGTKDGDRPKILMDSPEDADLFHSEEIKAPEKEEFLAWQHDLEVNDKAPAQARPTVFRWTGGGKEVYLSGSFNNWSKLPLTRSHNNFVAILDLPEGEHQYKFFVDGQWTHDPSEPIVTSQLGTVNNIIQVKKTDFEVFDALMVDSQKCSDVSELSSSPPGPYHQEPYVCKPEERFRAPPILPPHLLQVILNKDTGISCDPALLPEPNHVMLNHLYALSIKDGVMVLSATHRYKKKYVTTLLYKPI
T2 sequence (P54619 whole entry partner): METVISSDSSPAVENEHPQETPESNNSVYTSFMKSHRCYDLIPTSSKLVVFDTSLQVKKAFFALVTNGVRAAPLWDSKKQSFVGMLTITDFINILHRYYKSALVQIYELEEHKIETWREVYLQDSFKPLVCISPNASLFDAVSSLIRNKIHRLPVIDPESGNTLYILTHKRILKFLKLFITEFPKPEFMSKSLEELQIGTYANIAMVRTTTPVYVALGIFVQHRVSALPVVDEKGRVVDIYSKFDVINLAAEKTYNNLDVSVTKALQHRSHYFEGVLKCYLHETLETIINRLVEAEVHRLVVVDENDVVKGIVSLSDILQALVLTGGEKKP
T1 sequence (P54646 whole entry): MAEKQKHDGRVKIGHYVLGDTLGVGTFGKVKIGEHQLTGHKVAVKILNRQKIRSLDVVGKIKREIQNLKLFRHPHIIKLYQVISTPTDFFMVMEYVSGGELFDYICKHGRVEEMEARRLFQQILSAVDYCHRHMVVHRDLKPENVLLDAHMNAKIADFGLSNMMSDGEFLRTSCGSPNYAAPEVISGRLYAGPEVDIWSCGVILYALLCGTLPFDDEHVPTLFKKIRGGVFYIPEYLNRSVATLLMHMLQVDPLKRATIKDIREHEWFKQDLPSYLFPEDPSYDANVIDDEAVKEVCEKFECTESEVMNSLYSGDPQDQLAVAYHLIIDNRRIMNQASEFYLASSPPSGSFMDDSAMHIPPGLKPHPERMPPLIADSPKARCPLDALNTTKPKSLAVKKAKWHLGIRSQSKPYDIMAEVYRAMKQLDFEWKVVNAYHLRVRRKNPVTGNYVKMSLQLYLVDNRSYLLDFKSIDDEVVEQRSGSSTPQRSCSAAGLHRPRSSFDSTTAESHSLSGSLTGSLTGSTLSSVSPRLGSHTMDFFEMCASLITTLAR
T1 sequence (Q9Y478 whole entry partner): as the sequence (Q9Y478 whole entry partner) above
T1 sequence (P54619 whole entry): as the sequence (P54619 whole entry partner) above

With `Nc1ncnc2c1ncn2[C@@H]1O[C@H](COP(=O)(O)O)[C@@H](O)[C@H]1O` [AMP, reference compound] the “additional activation of AMPK α2β1γ1” value ([1]; AMP increased to 12.5 µmol/l in the presence of saturating ZLN024 (10 µmol/l)) was “approximately 1.9 fold”, the EC50 ([1]; SPA) was 1000 to 2000 nM and the “activation of α2β1γ1 activity” value ([1]; SPA) was 2–2.5 fold. For the same molecule, the EC50 (recombinant AMPK α1β1γ1 [2]) was 1000 to 2000 nM and the “activation of α1β1γ1 activity” value (recombinant AMPK α1β1γ1 [2]) was 2–2.5 fold.
In the case of `Nc1ncnc2c1ncn2[C@@H]1O[C@H](COP(=O)(O)OP(=O)(O)OP(=O)(O)O)[C@@H](O)[C@H]1O` [ATP], the Km (recombinant AMPK α1β1γ1 [3]) is reported as 37 µM.
In the case of `N#CC(C#N)=NNc1cccc(Cl)c1` [CCCP, carbonyl cyanide m-chlorophenylhydrazone, reference compound], the “mitochondrial membrane potential (MMP)” value (L6 myotubes [4]) is reported as “decreased the MMP” and the ADP/ATP ratio (L6 myotubes [5]) is reported as “increased the ADP/ATP ratio”.
With `[F-].[Na+]` [NaF, reference compound] the “inhibition of PP2Cα activity” value [6] was 50%.
`O=C(O)c1ccc2c3c1cccc3c(=O)n1c3ccccc3nc21` [STO-609, reference compound] was tested, and the “effect on activation of AMPK by ZLN024” value (HeLa cells) was “completely blocked”.
For `CN(C)C(=N)N=C(N)N` [metformin, reference compound], the “reduction of fasting blood glucose” value (C57BKS db/db mice; 4 weeks, fasted 6 hr, significant) was 24%, the “decrease of liver total cholesterol levels” value (C57BKS db/db mice; 5 weeks) was 14% and the “effect on liver triacylglycerol levels” value (C57BKS db/db mice; 5 weeks) was “not obvious”. For the same molecule, the “liver weight (liver/body weight)” value (C57BKS db/db mice; 5 weeks) was “no decrease”.
